Reference: patent US20260240810A1, “COMPOSITIONS AND METHODS FOR REDUCING ADVERSE SIDE EFFECTS IN CANCER TREATMENT” (priority 2022, published 2026)

Assay: Pharmacokinetics, RRx-001-GSH in plasma as surrogate for drug exposure
Type: in vivo
Method: RRx-001 reacted nonenzymatically and covalently with reduced glutathione (GSH), and with the β93Cys residue of hemoglobin, forming RRx-001-GSH and RRx-001-hemoglobin metabolites, respectively. Given the rapid conversion of the RRx-001 parent molecule to GSH and hemoglobin conjugates, RRx-001-GSH, being the predominant measurable metabolite in the plasma, was chosen as a surrogate for drug exposure. Terminal half-life of RRx-001-GSH was calculated as approximately 30 minutes.

## NC(CCC(=O)NC(CSCC(=O)N1CC([N+](=O)[O-])([N+](=O)[O-])C1)C(=O)NCC(=O)O)C(=O)O (centres unmarked) [RRx-001-GSH]
Doses up to 55 mg/m^2 in phase 1
  area under the plasma concentration-time curve and maximum plasma concentration, dose proportionality: mostly dosed proportional
plasma
  Terminal half-life of RRx-001-GSH: approximately 30 minutes
